The source of these data is patent publication US20250388568A1, “NLRP3 INHIBITORS” (Kodiak Sciences Inc., priority 2022, published 2025).

The term IC50 denotes the concentration that gives 50% inhibition.

The test system of experiment [1] is IL-1β release in THP-1-ASC-GFP cells after NLRP3 activation. Description: IC50 determination of IL-1β release inhibition in THP-1-ASC-GFP cells. The experiment is classed as cell-based. Particulars: THP1-ASC-GFP; THP-1-ASC-GFP cells, LPS priming 4 h, nigericin; average of at least three experiments; read-out: IL-1β IC50 (nM) THP1 cells. In short, it runs like this: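 THP-1-ASC-GFP cells were primed with 1 μg/mL LPS for 4 h, pretreated with compound for 30 min, then stimulated with nigericin plus compound for 1 h. Secreted IL-1β in supernatants was quantified by MSD electrochemiluminescence immunoassay. IC50 values were calculated from the measured IL-1β concentrations.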

For experiment [2], the system named is IL-1β release in U937 cells after NLRP3 activation. Description: IC50 determination of IL-1β release inhibition in U937 cells. The experiment is classed as cell-based. As to conditions: Homo sapiens, U-937; PMA-differentiated U937 cells, LPS priming 5 h, nigericin; average of at least three experiments; read-out: IL-1β IC50 (nM) U937 cells. In short, it runs like this:
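PMA-differentiated U937 cells (90 h) were primed 5 h with 1 μg/mL LPS, pre-incubated 30 min with compound, then stimulated with nigericin for 1 h. Supernatant IL-1β was quantified by MSD electrochemiluminescence. IC50 was derived from IL-1β concentration, with duplicate wells per compound.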

With `Cc1cc(S(=O)(=O)NC(=O)Nc2c3c(c(Cl)c4c2CCC4)CCC3)oc1CN(C)CC1(O)CCC1` [Example 57, N-((8-chloro-1,2,3,5,6,7-hexahydro-s-indacen-4-yl)carbamoyl)-5-((((1-hydroxycyclobutyl)methyl)(methyl)amino)methyl)-4-methylfuran-2-sulfonamide], the 50% inhibitory concentration (IC50) in experiment [1] and in experiment [2] was 5 to 50 nM in each case.

With `Cc1oc(S(=O)(=O)NC(=O)Nc2c3c(c(F)c4c2CCC4)CCC3)cc1CNCC1(O)CCC1` [Example 36, N-((8-fluoro-1,2,3,5,6,7-hexahydro-s-indacen-4-yl)carbamoyl)-4-((((1-hydroxycyclobutyl)methyl)amino)methyl)-5-methylfuran-2-sulfonamide], the values for the IC50 in experiment [1] and in experiment [2] were 5 to 50 nM and 50 to 500 nM, respectively.

In the case of `CNCc1coc([S@](=N)(=O)NC(=O)Nc2c3c(cc4c2CCC4)CCC3)c1` (single isomer, unassigned) [Example 75], the IC50 in experiment [1] and in experiment [2] was 50 to 500 nM in each case.

`Cc1oc([S@@](=N)(=O)NC(=O)Nc2c3c(cc4c2CCC4)CCC3)cc1CNC(C)C` (single isomer, unassigned) [Example 26, formic acid]: the IC50 in experiment [1] and in experiment [2] was 50 to 500 nM each time.

Consider `Cc1oc(S(=N)(=O)NC(=O)Nc2c3c(cc4c2CCC4)CCC3)cc1CN1CCC[C@@H]1CO` (stereo partly drawn) [Example 7, N-((1,2,3,5,6,7-hexahydro-s-indacen-4-yl)carbamoyl)-4-(((R)-2-(hydroxymethyl)pyrrolidin-1-yl)methyl)-5-methylfuran-2-sulfonimidamide], for which the IC50 in experiment [1] and in experiment [2] was less than 5 nM in each case.

Turning to `Cn1nc(S(=O)(=O)NC(=O)Nc2c3c(c(F)c4c2CCC4)CCC3)cc1CN1CCC[C@@H]1CO` [Example 63, (R)-N-((8-fluoro-1,2,3,5,6,7-hexahydro-s-indacen-4-yl)carbamoyl)-5-((2-(hydroxymethyl)pyrrolidin-1-yl)methyl)-1-methyl-1 H-pyrazole-3-sulfonamide], the IC50 in experiment [1] and in experiment [2] was 5 to 50 nM in each case.

In the case of `Cc1oc(S(=O)(=O)NC(=O)Nc2c3c(c(F)c4c2CCC4)CCC3)cc1CN1CCC[C@H]1CO` [Example 44, (S)-N-((8-fluoro-1,2,3,5,6,7-hexahydro-s-indacen-4-yl)carbamoyl)-4-((2-(hydroxymethyl)pyrrolidin-1-yl)methyl)-5-methylfuran-2-sulfonamide], the IC50 in experiment [1] and in experiment [2] was 5 to 50 nM throughout.
